Results from patent US9168295B2, “Vaccine peptide combinations” (Circassia Limited, priority 2007, dated 2015).
Entries after “also recorded” stand apart in the source; their conditions may differ. Like-named read-outs stand apart in the source and are kept apart here. No end group written: not given here.

Tested on: peripheral blood basophils (PBMC) from cat allergic subjects
Experiment: Histamine release assay and histamine ELISA
Format: cell-based, human
Details: for frequency of histamine release, in words: comparison among individual peptides
Protocol: Histamine release from fresh peripheral whole blood from cat allergic subjects was evaluated. Peripheral blood basophils were used as a surrogate for tissue mast cells which were not practical to assay. Blood was incubated in vitro with 9 individual peptides from the sequence of the major cat allergen Fel d 1 (SEQ ID NOS: 1, 2, 3, 4, 5, 6, 7, 11 and 12). These peptides were selected as potential T cell epitopes following peptide-MHC binding assays as explained in Example 1. Additionally, responses to a preferred mixtures of a mixture of 7 peptides identified in Example 1 were analysed. The tested preferred mixture of 7 peptides consisted of the peptides of SEQ ID NOS: 1 to 7. Histamine release in response to whole cat dander allergen extract acted as a positive control.
Peripheral blood mononuclear cells (PBMC) were isolated from the heparinised blood sample obtained from the subject. PBMC's were isolated by Ficoll-Hypaque density gradient separation. Once isolated, the cells were used in the cell proliferation assay, histamine release and ELISA assay and the cytokine release assay.
Assays were performed on PBMC (which contain basophils). Each peptide and combinations of peptides was compared with whole allergen molecules in a histamine release assay. Histamine concentrations were measured by ELISA.
The assay required 3×10^6 PBMC's per subject. The assay was performed using the Immunotech Histamine Release Immunoassay kit according to the manufacturer's instructions. Following the histamine release assay, acylated samples were tested by histamine ELISA. The histamine ELISA used 50 μl of the 100 μl acylated sample generated by the histamine release assay. The remaining 50 μl of sample was retained, by freezing at −20° C. until the data analysis section of the ELISA has been completed. Once the results had been analysed and the ELISA performed in a satisfactory manner, the samples were discarded.
Peptides were assayed for their ability to induce histamine release over a 5 log10 range (10 μg/ml to 1 ng/ml). The concentration range assayed was selected based on theoretical in vivo doses of peptide that may be achieved during therapy. For example, a 10 μg dose of peptide entering a blood volume of 5 litres, would result in a blood concentration of 2 ng/ml (2×10^−6 mg/ml), at the lower end of the histamine release assay dose range. Whole cat dander extract (C.B.F. LETI) was used as a positive control for release over a slightly higher concentration range (100 μg to 10 ng/ml). Single measurements (i.e. not duplicate or triplicate) were performed for each dilution. One duplicate blood sample was assayed for spontaneous histamine release and the mean value of these samples was subtracted from all peptide/allergen results.
After completion of the histamine ELISA, individual histamine levels were determined by interpolation for the standard curve generated in the ELISA assay. Results from samples were adjusted to allow for any dilution of the samples.
Histamine release was considered positive if (a) the highest concentration of peptide alone induced release of 10% or more of the total release value or (b) if two consecutive values were 10% or more of the total release. […] Of these, 6/81 (7.4%) had not positive control release to whole cat allergen extract.

Molecule | number of individuals in whom histamine release was detected (of 81 subjects) | other results
TAMKKIQDCYVENGLI [MLA12, TAMKKIQDCYVENGLI] | 6 | 
CC(C)C[C@H](NC(=O)[C@@H](NC(=O)[C@@H](NC(=O)[C@@H]1CCCN1C(=O)[C@H](CC(C)C)NC(=O)[C@H](C)NC(=O)[C@H](CCCCN)NC(=O)[C@H](Cc1ccc(O)cc1)NC(=O)[C@H](CCC(N)=O)NC(=O)[C@H](C)NC(=O)[C@@H](NC(=O)[C@H](CCC(N)=O)NC(=O)[C@@H](N)CCC(=O)O)C(C)C)C(C)C)C(C)C)C(=O)N[C@@H](CCC(=O)O)C(=O)N[C@@H](CC(N)=O)C(=O)N[C@@H](C)C(=O)O [MLA03, EQVAQYKALPVVLENA] | 6 | 
AVQNTVEDLKLNTLGR [MLA16, AVQNTVEDLKLNTLGR] | 11 | frequency of histamine release, in words: most commonly released histamine; also recorded: the most frequent basophil histamine release responses; also recorded: most frequently associated with histamine release; also recorded: caused most frequent release; also recorded: gave the highest histamine release
SRVLDGLVMTTISSSK [MLA14, SRVLDGLVMTTISSSK] | 2 | 
KALPVVLENARILKNCV [MLA04, KALPVVLENARILKNCV] | 6 | 
ISSSKDCMGEAVQNTV [MLA15, ISSSKDCMGEAVQNTV] | 7 | frequency of histamine release, in words: most commonly released histamine; also recorded: the most frequent basophil histamine release responses; also recorded: gave the highest histamine release; Comments on histamine release (individual subject): MLA15 JUST ABOVE THE 10% CUT OFF
KENALSVLDKIYTSPL [MLA07] |  | number of individuals in whom histamine release was detected: 6
RILKNCVDAKMTEEDKE [MLA05, RILKNCVDAKMTEEDKE] |  | number of individuals in whom histamine release was detected: 1
